Laboratory results taken from patent publication US4357324A, “Prodrug derivatives of 9β-D-arabinofuranosyl-2-fluoroadenine” (The United States of America as represented by the …, priority 1981, dated 1982).

Tests used:
L1210 Leukemia = assay: Activity against L1210 leukemia, 10^5 L1210 cell IP (Table IV); format: in vivo, mice; conditions: for lifespan and cures of mice implanted with leukemia L1210 cells: FIGS. 1 and 3; for Lifespan: untreated control 8
Procedure: (§1) These higher levels of the active agent that last for longer periods of time allow effective treatment with these drugs given once a day for nine days (see FIGS. 1, 2 and 3).
(§2) It has been noted that the antitumor activity of 9-β-D-arabinofuranosyl adenine (ara-A) is enhanced by the incorporation of a fluorine atom at the 2-carbon. […] To overcome this difficulty two water-soluble derivatives, the 5'-formate and the 5'-phosphate, were prepared.

[1] = Water solubility (statement); format: physicochemical; conditions: in words
[2] = Conversion to the parent drug in vivo (statement); conditions: in words
L1210/0 Leukemia = assay: Activity against L1210/0 leukemia, 10^5 IP (Tables II and III); format: in vivo, mice
Procedure: as §1
Treatment: IP; QD 1-9 Days*
*2'dCF Given 30 Minutes Before araA
as §2

L1210 cells = assay: Nanomoles of triphosphate per gm L1210 cells after treatment (Table I); format: in vivo, mice; conditions: for levels of F-ara-A triphosphate in leukemic cells versus F-ara-A itself: mouse, in vivo
Procedure: as §1, §2

[3] = in words; second component of the two-drug combination; cited from earlier work
[4] = Table II, 150 mg/kg/dose, IP, QD 1-9 days
[5] = mice implanted with leukemia L1210 cells
[6] = Table IV, 219 mg/kg/day, qd 1-9
[7] = Table IV, 375 mg/kg/day, q3h, days 1,5,9

Nc1ncnc2c1ncn2[C@@H]1O[C@H](CO)[C@@H](O)[C@@H]1O [ara-A, 9-β-D-arabinofuranosyl adenine, reference compound]
effectiveness (L1210 Leukemia; optimal schedule, every 3 hours for 24 hours): not very effective

Nc1nc(F)nc2c1ncn2[C@@H]1O[C@H](COC=O)[C@@H](O)[C@@H]1O [F-ara-A5'-formate, 9-(5-O-formyl-β-D-arabinofuranosyl)-2-fluoroadenine]
solubility [1]: water-soluble | conversion to the parent drug in vivo [2]: converted to the parent drug in vivo | % ILS (L1210/0 Leukemia; [4]): 177% | Cures (L1210/0 Leukemia; [4]): 3/10 | Median Lifespan (L1210/0 Leukemia; Table II, 150 mg/kg/dose, IP, QD 1-9 days, untreated control 9): 25 days | Cures (L1210/0 Leukemia; [5]): three | increase in lifespan (L1210/0 Leukemia; [5]): 177% | levels of F-ara-A triphosphate in leukemic cells versus F-ara-A itself (L1210 cells): higher levels | lifespan and cures of mice implanted with leukemia L1210 cells (L1210 Leukemia): good increases in lifespan and some cures

Nc1nc(F)nc2c1ncn2[C@@H]1O[C@H](CO)[C@@H](O)[C@@H]1O [F-ara-A, 9-β-D-arabinofuranosyl-2-fluoroadenine, reference compound]
solubility [1]: very insoluble | levels of the triphosphate in L1210 versus ara-A+2'dCF (L1210 cells; near equimolar doses): higher levels

Nc1nc(F)nc2c1ncn2[C@@H]1O[C@H](COP(=O)(O)O)[C@@H](O)[C@@H]1O [F-ara-AMP, 9-β-D-arabinofuranosyl-2-fluoroadenine 5'-phosphate]
solubility [1]: water-soluble | conversion to the parent drug in vivo [2]: converted to the parent drug in vivo | levels of F-ara-A triphosphate in leukemic cells versus F-ara-A itself (L1210 cells): higher levels | lifespan and cures of mice implanted with leukemia L1210 cells (L1210 Leukemia): good increases in lifespan and some cures | % ILS (L1210 Leukemia; [6]): 125% | Cures (L1210 Leukemia; [6]): 3/10 | Lifespan (L1210 Leukemia; [6]): 18 days

OC[C@H]1O[C@@H](n2cnc3c2NC=NC[C@H]3O)C[C@@H]1O [2'-dCF]
toxicity [3]: clear but not completely defined toxicity

Nc1ncnc2c1ncn2[C@@H]1O[C@H](COP(=O)(O)O)[C@@H](O)[C@@H]1O [Ara-AMP, 9-β-D-arabinofuranosyl adenine 5'-phosphate, reference compound]
% ILS (L1210 Leukemia; [7]): 62% | Lifespan (L1210 Leukemia; [7]): 13 days
